According to BindingDB's records for doi:10.1016/s0960-894x(99)00595-8 (Banyu Tsukuba Research Institute In Collaboration With …, 2000):

Biological target: DNA topoisomerase 2-alpha (Homo sapiens) (UniProt P11388)
Assay: In vitro inhibition of Topoisomerase II-mediated DNA cleavage using supercoiled pBR322 plasmid DNA.

Chain of DNA topoisomerase 2-alpha (Homo sapiens) (P11388 whole entry, looked up): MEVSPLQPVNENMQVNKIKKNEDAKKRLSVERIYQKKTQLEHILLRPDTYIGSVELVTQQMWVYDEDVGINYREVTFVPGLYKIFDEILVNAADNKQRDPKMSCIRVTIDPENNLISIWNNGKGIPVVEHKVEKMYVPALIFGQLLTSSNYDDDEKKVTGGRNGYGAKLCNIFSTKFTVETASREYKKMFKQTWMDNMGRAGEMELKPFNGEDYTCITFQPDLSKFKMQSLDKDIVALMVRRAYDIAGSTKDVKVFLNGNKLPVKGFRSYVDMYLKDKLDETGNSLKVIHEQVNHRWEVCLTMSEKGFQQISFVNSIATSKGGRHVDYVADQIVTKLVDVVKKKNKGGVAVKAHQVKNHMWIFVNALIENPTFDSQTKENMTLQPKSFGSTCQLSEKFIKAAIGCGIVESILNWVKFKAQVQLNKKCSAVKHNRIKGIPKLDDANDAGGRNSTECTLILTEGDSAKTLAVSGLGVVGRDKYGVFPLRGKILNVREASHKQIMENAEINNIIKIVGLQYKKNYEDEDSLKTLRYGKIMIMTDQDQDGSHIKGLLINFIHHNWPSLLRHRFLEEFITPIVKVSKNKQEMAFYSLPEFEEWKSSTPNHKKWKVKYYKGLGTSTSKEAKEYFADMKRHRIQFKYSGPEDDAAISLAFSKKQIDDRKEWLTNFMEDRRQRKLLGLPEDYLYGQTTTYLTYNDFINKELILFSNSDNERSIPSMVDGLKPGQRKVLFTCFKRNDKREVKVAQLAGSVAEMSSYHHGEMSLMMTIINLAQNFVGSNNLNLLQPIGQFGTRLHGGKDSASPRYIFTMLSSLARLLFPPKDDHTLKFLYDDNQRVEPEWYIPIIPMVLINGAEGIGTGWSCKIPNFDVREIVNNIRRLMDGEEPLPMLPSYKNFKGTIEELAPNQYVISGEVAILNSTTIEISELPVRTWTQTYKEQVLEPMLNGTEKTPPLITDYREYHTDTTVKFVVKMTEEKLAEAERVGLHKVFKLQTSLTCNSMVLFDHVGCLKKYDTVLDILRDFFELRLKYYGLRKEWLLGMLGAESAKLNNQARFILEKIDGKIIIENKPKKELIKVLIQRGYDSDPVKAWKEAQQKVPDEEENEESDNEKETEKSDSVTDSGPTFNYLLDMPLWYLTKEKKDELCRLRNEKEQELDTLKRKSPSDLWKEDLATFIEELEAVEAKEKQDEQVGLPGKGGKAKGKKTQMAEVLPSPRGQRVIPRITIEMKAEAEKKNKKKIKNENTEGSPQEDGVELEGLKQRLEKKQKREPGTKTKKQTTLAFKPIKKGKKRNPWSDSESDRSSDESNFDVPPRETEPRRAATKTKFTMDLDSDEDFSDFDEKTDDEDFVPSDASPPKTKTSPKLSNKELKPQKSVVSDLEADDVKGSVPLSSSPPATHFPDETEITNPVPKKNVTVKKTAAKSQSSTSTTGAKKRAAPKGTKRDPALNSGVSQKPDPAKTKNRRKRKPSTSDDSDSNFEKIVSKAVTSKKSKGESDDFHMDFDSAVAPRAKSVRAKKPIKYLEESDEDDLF

Row | EC50 | SMILES
1 | > 50 µM | O=C1c2c(c3c4cc(O)ccc4n(C4OC(CO)C(O)C(O)C4O)c3c3[nH]c4c(O)cccc4c23)C(=O)N1NC(CO)CO (stereo not drawn) [1,9-dihydroxy-6-(2-hydroxy-1-hydroxymethylethylamino)-12-(3,4,5-trihydroxy-6-hydroxymethyltetrahydro-2H-2-pyranyl)-6,7,12,13-tetrahydro-5H-indolo[2,3-a]pyrrolo[3,4-c]carbazole-5,7-dione]
2 | > 50 µM | O=C1c2c(c3c4cccc(O)c4n(C4OC(CO)C(O)C(O)C4O)c3c3[nH]c4ccc(O)cc4c23)C(=O)N1NC(CO)CO (stereo not drawn) [1,9-dihydroxy-6-(2-hydroxy-1-hydroxymethylethylamino)-13-(3,4,5-trihydroxy-6-hydroxymethyltetrahydro-2H-2-pyranyl)-6,7,12,13-tetrahydro-5H-indolo[2,3-a]pyrrolo[3,4-c]carbazole-5,7-dione]
3 | > 50 µM | O=C1c2c(c3c4cccc(O)c4n(C4OC(CO)C(O)C(O)C4O)c3c3[nH]c4cc(O)ccc4c23)C(=O)N1NC(CO)CO (stereo not drawn) [1,10-dihydroxy-6-(2-hydroxy-1-hydroxymethylethylamino)-13-(3,4,5-trihydroxy-6-hydroxymethyltetrahydro-2H-2-pyranyl)-6,7,12,13-tetrahydro-5H-indolo[2,3-a]pyrrolo[3,4-c]carbazole-5,7-dione]
4 | > 50 µM | O=C1c2c(c3c4cccc(O)c4n(C4OC(CO)C(O)C(O)C4O)c3c3[nH]c4c(O)cccc4c23)C(=O)N1NC(CO)CO (stereo not drawn) [1,11-dihydroxy-6-(2-hydroxy-1-hydroxymethylethylamino)-12-(3,4,5-trihydroxy-6-hydroxymethyltetrahydro-2H-2-pyranyl)-6,7,12,13-tetrahydro-5H-indolo[2,3-a]pyrrolo[3,4-c]carbazole-5,7-dione]
5 | > 50 µM | O=C1c2c(c3c4cccc(O)c4n(C4OC(CO)C(O)C(O)C4O)c3c3[nH]c4ccccc4c23)C(=O)N1NC(CO)CO (stereo not drawn) [1-hydroxy-6-(2-hydroxy-1-hydroxymethylethylamino)-13-(3,4,5-trihydroxy-6-hydroxymethyltetrahydro-2H-2-pyranyl)-6,7,12,13-tetrahydro-5H-indolo[2,3-a]pyrrolo[3,4-c]carbazole-5,7-dione]
6 | > 50 µM | O=C1c2c(c3c4ccc(O)cc4n(C4OC(CO)C(O)C(O)C4O)c3c3[nH]c4ccc(O)cc4c23)C(=O)N1NC(CO)CO (stereo not drawn) [2,9-dihydroxy-6-(2-hydroxy-1-hydroxymethylethylamino)-13-(3,4,5-trihydroxy-6-hydroxymethyltetrahydro-2H-2-pyranyl)-6,7,12,13-tetrahydro-5H-indolo[2,3-a]pyrrolo[3,4-c]carbazole-5,7-dione]
7 | > 50 µM | O=C1c2c(c3c4cc(O)ccc4n(C4OC(CO)C(O)C(O)C4O)c3c3[nH]c4ccc(O)cc4c23)C(=O)N1NC(CO)CO (stereo not drawn) [3,9-dihydroxy-6-(2-hydroxy-1-hydroxymethylethylamino)-12-(3,4,5-trihydroxy-6-hydroxymethyltetrahydro-2H-2-pyranyl)-6,7,12,13-tetrahydro-5H-indolo[2,3-a]pyrrolo[3,4-c]carbazole-5,7-dione]
8 | > 50 µM | O=C1c2c(c3c4ccccc4n(C4OC(CO)C(O)C(O)C4O)c3c3[nH]c4ccc(O)cc4c23)C(=O)N1NC(CO)CO (stereo not drawn) [3-hydroxy-6-(2-hydroxy-1-hydroxymethylethylamino)-12-(3,4,5-trihydroxy-6-hydroxymethyltetrahydro-2H-2-pyranyl)-6,7,12,13-tetrahydro-5H-indolo[2,3-a]pyrrolo[3,4-c]carbazole-5,7-dione]

The remaining lines, values behind:

Row | SMILES | EC50
9 | O=C1c2c(c3c4cc(O)cc(O)c4n(C4OC(CO)C(O)C(O)C4O)c3c3[nH]c4c(O)cc(O)cc4c23)C(=O)N1NC(CO)CO (stereo not drawn) [1,3,9,11-tetrahydroxy-6-(2-hydroxy-1-hydroxymethylethylamino)-12-(3,4,5-trihydroxy-6-hydroxymethyltetrahydro-2H-2-pyranyl)-6,7,12,13-tetrahydro-5H-indolo[2,3-a]pyrrolo[3,4-c]carbazole-5,7-dione] | > 50 µM
10 | O=C1c2c(c3c4ccc(O)cc4n(C4OC(CO)C(O)C(O)C4O)c3c3[nH]c4c(O)cc(O)cc4c23)C(=O)N1NC(CO)CO (stereo not drawn) [1,3,10-trihydroxy-6-(2-hydroxy-1-hydroxymethylethylamino)-12-(3,4,5-trihydroxy-6-hydroxymethyltetrahydro-2H-2-pyranyl)-6,7,12,13-tetrahydro-5H-indolo[2,3-a]pyrrolo[3,4-c]carbazole-5,7-dione] | > 50 µM
11 | O=C1c2c(c3c4ccc(O)cc4n(C4OC(CO)C(O)C(O)C4O)c3c3[nH]c4c(O)cccc4c23)C(=O)N1NC(CO)CO (stereo not drawn) [1,10-dihydroxy-6-(2-hydroxy-1-hydroxymethylethylamino)-12-(3,4,5-trihydroxy-6-hydroxymethyltetrahydro-2H-2-pyranyl)-6,7,12,13-tetrahydro-5H-indolo[2,3-a]pyrrolo[3,4-c]carbazole-5,7-dione] | > 50 µM
12 | O=C1c2c(c3c4ccccc4n(C4OC(CO)C(O)C(O)C4O)c3c3[nH]c4c(O)cccc4c23)C(=O)N1NC(CO)CO (stereo not drawn) [1-hydroxy-6-(2-hydroxy-1-hydroxymethylethylamino)-12-(3,4,5-trihydroxy-6-hydroxymethyltetrahydro-2H-2-pyranyl)-6,7,12,13-tetrahydro-5H-indolo[2,3-a]pyrrolo[3,4-c]carbazole-5,7-dione] | > 50 µM
13 | O=C1c2c(c3c4cc(O)ccc4n(C4OC(CO)C(O)C(O)C4O)c3c3[nH]c4cc(O)ccc4c23)C(=O)N1NC(CO)CO (stereo not drawn) [2,9-dihydroxy-6-(2-hydroxy-1-hydroxymethylethylamino)-12-(3,4,5-trihydroxy-6-hydroxymethyltetrahydro-2H-2-pyranyl)-6,7,12,13-tetrahydro-5H-indolo[2,3-a]pyrrolo[3,4-c]carbazole-5,7-dione] | > 50 µM
14 | O=C1c2c(c3c4ccc(O)cc4n(C4OC(CO)C(O)C(O)C4O)c3c3[nH]c4cc(O)ccc4c23)C(=O)N1NC(CO)CO (stereo not drawn) [2,10-dihydroxy-6-(2-hydroxy-1-hydroxymethylethylamino)-12-(3,4,5-trihydroxy-6-hydroxymethyltetrahydro-2H-2-pyranyl)-6,7,12,13-tetrahydro-5H-indolo[2,3-a]pyrrolo[3,4-c]carbazole-5,7-dione] | > 50 µM
15 | O=C1c2c(c3c4ccccc4n(C4OC(CO)C(O)C(O)C4O)c3c3[nH]c4cc(O)ccc4c23)C(=O)N1NC(CO)CO (stereo not drawn) [2-hydroxy-6-(2-hydroxy-1-hydroxymethylethylamino)-12-(3,4,5-trihydroxy-6-hydroxymethyltetrahydro-2H-2-pyranyl)-6,7,12,13-tetrahydro-5H-indolo[2,3-a]pyrrolo[3,4-c]carbazole-5,7-dione] | > 50 µM
16 | O=C1c2c(c3c4ccc(O)cc4n(C4OC(CO)C(O)C(O)C4O)c3c3[nH]c4ccccc4c23)C(=O)N1NC(CO)CO (stereo not drawn) [2-hydroxy-6-(2-hydroxy-1-hydroxymethylethylamino)-13-(3,4,5-trihydroxy-6-hydroxymethyltetrahydro-2H-2-pyranyl)-6,7,12,13-tetrahydro-5H-indolo[2,3-a]pyrrolo[3,4-c]carbazole-5,7-dione] | > 50 µM
17 | O=C1c2c(c3c4cc(O)ccc4n(C4OC(CO)C(O)C(O)C4O)c3c3[nH]c4ccccc4c23)C(=O)N1NC(CO)CO (stereo not drawn) [3-hydroxy-6-(2-hydroxy-1-hydroxymethylethylamino)-13-(3,4,5-trihydroxy-6-hydroxymethyltetrahydro-2H-2-pyranyl)-6,7,12,13-tetrahydro-5H-indolo[2,3-a]pyrrolo[3,4-c]carbazole-5,7-dione] | > 50 µM
18 | O=C1c2c(c3c4ccccc4n(C4OC(CO)C(O)C(O)C4O)c3c3[nH]c4cccc(O)c4c23)C(=O)N1NC(CO)CO (stereo not drawn) [4-hydroxy-6-(2-hydroxy-1-hydroxymethylethylamino)-12-(3,4,5-trihydroxy-6-hydroxymethyltetrahydro-2H-2-pyranyl)-6,7,12,13-tetrahydro-5H-indolo[2,3-a]pyrrolo[3,4-c]carbazole-5,7-dione] | > 50 µM
